Legend:
PC-3 cells [1] = test: Matrigel cell invasion assay; conditions: 25 μM compound, 24 hrs
Experimental: Cell invasion assays. The cell invasion assays are performed using 6.4-mm Biocoat Matrigel invasion chambers with 8.0-micron pore size PET membrane (Becton-Dickinson) according to the manufactory instructions. Briefly, 5×10^4 cells are resuspended in 0.5 ml of serum free culture medium and added to the upper chamber. 10% fetal bovine serum in the culture medium is used as a chemo-attractant in the lower chamber. After the cells are incubated for overnight, the number of cell passed through the Matrigel is counted.
Cells invaded through Matrigel matrix were visualized with Giemasa staining.

Swiss3T3 cells = test: Immunofluorescence of PDGF-stimulated lamellipodia formation; conditions: 100 μM compound, 10 nM PDGF
Experimental: Immunofluorescence. […] The cellular actin is stained with TRITC-labeled phalloidin (Sigma) at 10 μg/ml in PBS for 40 min at room temperature. The actin and cell morphological changes are visualized by fluorescence microscopy.
The cells were fixed and stained with Rhodamine-labeled phalloidin.

PC-3 cells [2] = test: Anchorage independent growth in soft agar
endogenous RhoA = molecular target: T1, endogenous RhoA (Mus musculus, UniProt Q9QUI0); test: Endogenous Rho GTPase activity assay (GST-Rhotekin pull-down), RhoA in NIH 3T3 cells; assay type: cell-based; conditions: 10% serum
T1 construct: endogenous in cells; host or cells: NIH 3T3 fibroblasts

[3] = molecular target: T2, RhoA binding to PDZ-RhoGEF (Homo sapiens, UniProt P61586); test: Complex formation assay, RhoA with PDZ-RhoGEF
T2 construct: made in house; host or cells: Cos-7 cells (PDZ-RhoGEF, used as lysate)
Experimental: Trio and Tiam-1 co-precipitate with GST-Rac1, but not GST or GST-Cdc42.
After an incubation at 4° C. for 30 minutes, the beads associated (His)6-TrioN were detected by anti-His Western blotting. The blots were quantified by densitometry analysis. The results are representative of three measurements. […] The association of Rac1 with Tiam1 was examined by anti-His blot after anti-myc immunoprecipitation. […] The RhoA associated PDZ-RhoGEF was probed with anti-AU antibody after affinity precipitation by glutathione agarose beads.

platelets = test: Platelet adhesion, secretion and aggregation elicited by agonists; assay type: cell-based, mouse and human; conditions: induced by ADP, PLC, U46619, collagen, thrombin, or phorbol ester
Excerpt: In the studies disclosed hereinbelow, a dual approach of genetic targeting of Rac GTPases in mice and specific pharmacological inhibition of Rac GTPases in both mouse and human platelets was used to establish the central role of Rac GTPases in platelet function.
Treatment of mice with Compound NCI23766, Formula IV. […] This process was described above in the Experimental section of this document.

NIH 3T3 cells = test: Cell growth assay of wild type, L61Rac1- or GEF-expressing NIH 3T3 cells; assay type: cell-based; conditions: 100 μM compound
Excerpt: The cells were split in triplicate in 6-well plates at a density of 5×10^4 cells per well. […] The foci numbers of the respective cells were quantified 14 days after transfection. […] The number and the morphology of the colonies were examined under a microscope.
Due to their ability to directly activate Rho GTPases, Db1 family GEFs are potent stimulators of cell proliferation.

PC-3 cells [4] = test: PC-3 cell proliferation (CellTiter 96 AQueous assay); conditions: 5% calf serum, indicated concentrations
Experimental: Cell growth assay. […] The growth rate of the prostate PC-3 cells is measured by the CellTiter 96 AQueous assay (Promega). 1,500 cells/well in 200 μl of 5% FBS medium are plated in 96-well plates and are grown under normal conditions. Cultures are assayed in 0, 1, 2, 3, 4, or 5 days by the addition of 20 μl of the combined MTS/PMS solution followed by incubation for one hour at 37° C. Absorbency is measured at a wavelength of 490 nm on an automated microplate reader.
The cells were split in triplicate in 96-wells at 1.5×10^3 cells per well. Cell numbers were assayed by using CellTiter 96 AQueous cell proliferation assay kit in different days.

[5] = molecular target: PDZ-RhoGEF-stimulated mantGDP/GTP exchange of RhoA (Homo sapiens, UniProt P61586); test: In vitro guanine nucleotide exchange assay (mant-GDP), RhoA/PDZ-RhoGEF; assay type: biochemical; conditions: 200 μM compound
PDZ-RhoGEF-stimulated mantGDP/GTP exchange of RhoA, sequence (P61586 whole entry): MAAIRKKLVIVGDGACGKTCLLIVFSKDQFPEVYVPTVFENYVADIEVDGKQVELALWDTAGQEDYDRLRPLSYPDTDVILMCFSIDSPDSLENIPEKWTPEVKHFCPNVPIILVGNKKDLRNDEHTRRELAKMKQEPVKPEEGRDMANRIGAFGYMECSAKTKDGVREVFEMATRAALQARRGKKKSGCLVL

T2 sequence (P61586 whole entry): as above
T1 sequence (Q9QUI0 whole entry): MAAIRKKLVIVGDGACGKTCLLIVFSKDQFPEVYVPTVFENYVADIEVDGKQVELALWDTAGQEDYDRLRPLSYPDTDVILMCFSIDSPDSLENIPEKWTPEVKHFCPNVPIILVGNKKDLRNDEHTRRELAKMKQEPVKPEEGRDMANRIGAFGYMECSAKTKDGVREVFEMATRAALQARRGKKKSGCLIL

level of RhoA-GTP in cells (endogenous RhoA): slightly increased level
interference with RhoA binding to PDZ-RhoGEF [3]: does not interfere
effect on PDZ-RhoGEF-stimulated mantGDP/GTP exchange of RhoA [5]: little impact
SMILES: CCN(CC)CCCC(C)Nc1nc(C)cc(Nc2ccc3nc(C)cc(N)c3c2)n1 (racemic) [Compound NCI23766, N6-(2-((4-(diethylamino)-1-methylbutyl)amino)-6-methyl-4-pyrimidinyl)-2-methyl-4,6-quinolinediamine]
PC-3 cell invasion (PC-3 cells [1]): significantly inhibits
PDGF induction of lamellipodia at the cell edges (Swiss3T3 cells; 5 min): only marginally effective
PDGF induction of lamellipodia at the cell edges (Swiss3T3 cells; 10 min): completely ineffective
size of colonies of treated cells versus untreated (PC-3 cells [2]): much smaller
colony-forming activities remaining (PC-3 cells [2]; 25 μM compound): Approximately 10%
colony-forming activities remaining (PC-3 cells [2]; 50 μM compound): ~1%
platelet adhesion (platelets): worked remarkably in inhibiting
platelet aggregation (platelets): worked remarkably in inhibiting
platelet secretion (platelets): worked remarkably in inhibiting
growth of wild type NIH 3T3 cells (NIH 3T3 cells; 5% serum): slow the growth
growth rate of Rac1L61 expressing cells (NIH 3T3 cells; 5% serum): no effect
cell growth induced by the Rac specific GEF Trio (NIH 3T3 cells; NIH 3T3, 5% serum): capable of inhibiting
proliferation rates of PC-3 cells (PC-3 cells [4]): inhibited by Compound NCI23766 in a dose dependent manner
